Assay results published in US20260306491A1, “EGFR INHIBITOR FOR TREATING CANCERS COMPRISING ATYPICAL EGFR MUTATIONS” (ORIC Pharmaceuticals, Inc., priority 2023, published 2026).

Experiment: Clinical study in NSCLC subjects: treatment-related adverse events (Example 10)
Format: in vivo, human
Conditions: oral hemifumarate
Method: A clinical study was conducted using Compound I in human subjects having non-small cell lung cancer (NSCLC) comprising EGFR exon 20 insertion mutations, HER2 exon 20 insertion mutations, or HER2 amplification or overexpression. A total of 50 human subjects having non-small cell lung cancer comprising one or more EGFR exon 20 insertion mutations, HER2 exon 20 insertion mutations, or HER2 amplification or overexpression were enrolled in the study as of Jul. 31, 2023 with data collected as of Sep. 26, 2023. The subjects were enrolled into one of ten dosing cohorts that were each orally administered Compound I in the form of a hemifumarate salt as shown in Table 13 (QD=once per day; BID=twice per day).
The TRAEs that occurred in equal to or greater than 10% of subjects in the study are set forth in Tables 15 to 18 (TDD=total daily dose; n=number; N/A=not applicable; the term rash includes the following terms: acne, dermatitis, dermatitis acneiform, eczema, hand dermatitis, and rash).

C=CC(=O)Nc1cc(Nc2cc(N3OCC[C@@H]3c3cc(F)cc(F)c3)ncn2)c(OC)cc1N1CCC(N2CCN(C3CC3)CC2)CC1 [Compound I, N-[2-[4-(4-cyclopropyl-1-piperazinyl)-1-piperidinyl]-5-[[6-[(3R)-3-(3,5-difluorophenyl)-2-isoxazolidinyl]-4-pyrimidinyl]amino]-4-methoxyphenyl]-2-propenamide]
Dose reductions and discontinuations: infrequent dose reductions and discontinuations
Decreased appetite, Grade 1 (45 mg-60 mg TDD (n = 23)): (22) %
Decreased appetite, Grade 1, number of subjects (45 mg-60 mg TDD (n = 23)): 5 n
Decreased appetite, Grade 2 (45 mg-60 mg TDD (n = 23)): (4) %
Decreased appetite, Grade 2, number of subjects (45 mg-60 mg TDD (n = 23)): 1 n
Diarrhea, Grade 1 (45 mg-60 mg TDD (n = 23)): (30) %
Diarrhea, Grade 1, number of subjects (45 mg-60 mg TDD (n = 23)): 7 n
Diarrhea, Grade 2 (45 mg-60 mg TDD (n = 23)): (9) %
Diarrhea, Grade 2, number of subjects (45 mg-60 mg TDD (n = 23)): 2 n
Diarrhea, Grade 3 (45 mg-60 mg TDD (n = 23)): 9%
Diarrhea, Grade 3, number of subjects (45 mg-60 mg TDD (n = 23)): 2 n
Dose discontinuations (45 mg-60 mg TDD (n = 23)): 4%
Dose discontinuations, number (45 mg-60 mg TDD (n = 23)): 1 n
Dose reductions (45 mg-60 mg TDD (n = 23)): 13%
Dose reductions, number (45 mg-60 mg TDD (n = 23)): 3 n
Nausea, Grade 1 (45 mg-60 mg TDD (n = 23)): (9) %
Nausea, Grade 1, number of subjects (45 mg-60 mg TDD (n = 23)): 2 n
Nausea, Grade 2 (45 mg-60 mg TDD (n = 23)): (9) %
Nausea, Grade 2, number of subjects (45 mg-60 mg TDD (n = 23)): 2 n
Paronychia, Grade 1 (45 mg-60 mg TDD (n = 23)): (17) %
Paronychia, Grade 1, number of subjects (45 mg-60 mg TDD (n = 23)): 4 n
Paronychia, Grade 2 (45 mg-60 mg TDD (n = 23)): (17) %
Paronychia, Grade 2, number of subjects (45 mg-60 mg TDD (n = 23)): 4 n
Pruritis, Grade 1 (45 mg-60 mg TDD (n = 23)): (17) %
Pruritis, Grade 1, number of subjects (45 mg-60 mg TDD (n = 23)): 4 n
Pruritis, Grade 2 (45 mg-60 mg TDD (n = 23)): (9) %
Pruritis, Grade 2, number of subjects (45 mg-60 mg TDD (n = 23)): 2 n
Pruritis, Grade 3 (45 mg-60 mg TDD (n = 23)): 4%
Pruritis, Grade 3, number of subjects (45 mg-60 mg TDD (n = 23)): 1 n
Rash, Grade 1 (45 mg-60 mg TDD (n = 23)): (26) %
Rash, Grade 1, number of subjects (45 mg-60 mg TDD (n = 23)): 6 n
Rash, Grade 2 (45 mg-60 mg TDD (n = 23)): (26) %
Rash, Grade 2, number of subjects (45 mg-60 mg TDD (n = 23)): 6 n
Stomatitis, Grade 1 (45 mg-60 mg TDD (n = 23)): (9) %
Stomatitis, Grade 1, number of subjects (45 mg-60 mg TDD (n = 23)): 2 n
Stomatitis, Grade 2 (45 mg-60 mg TDD (n = 23)): (9) %
Stomatitis, Grade 2, number of subjects (45 mg-60 mg TDD (n = 23)): 2 n
Stomatitis, Grade 3 (45 mg-60 mg TDD (n = 23)): 4%
Stomatitis, Grade 3, number of subjects (45 mg-60 mg TDD (n = 23)): 1 n
Vomiting, Grade 1 (45 mg-60 mg TDD (n = 23)): (9) %
Vomiting, Grade 1, number of subjects (45 mg-60 mg TDD (n = 23)): 2 n
Decreased appetite, Grade 2 (<45 mg TDD (n = 18)): (6) %
Decreased appetite, Grade 2, number of subjects (<45 mg TDD (n = 18)): 1 n
Diarrhea, Grade 1 (<45 mg TDD (n = 18)): (11) %
Diarrhea, Grade 1, number of subjects (<45 mg TDD (n = 18)): 2 n
Diarrhea, Grade 2 (<45 mg TDD (n = 18)): (11) %
Diarrhea, Grade 2, number of subjects (<45 mg TDD (n = 18)): 2 n
Dose discontinuations (<45 mg TDD (n = 18)): 9%
Dose discontinuations, number (<45 mg TDD (n = 18)): 1 n
Dose reductions (<45 mg TDD (n = 18)): 18%
Dose reductions, number (<45 mg TDD (n = 18)): 2 n
Nausea, Grade 1 (<45 mg TDD (n = 18)): (6) %
Nausea, Grade 1, number of subjects (<45 mg TDD (n = 18)): 1 n
Paronychia, Grade 1 (<45 mg TDD (n = 18)): (6) %
Paronychia, Grade 1, number of subjects (<45 mg TDD (n = 18)): 1 n
Paronychia, Grade 2 (<45 mg TDD (n = 18)): (11) %
Paronychia, Grade 2, number of subjects (<45 mg TDD (n = 18)): 2 n
Pruritis, Grade 1 (<45 mg TDD (n = 18)): (11) %
Pruritis, Grade 1, number of subjects (<45 mg TDD (n = 18)): 2 n
Rash, Grade 1 (<45 mg TDD (n = 18)): (33) %
Rash, Grade 1, number of subjects (<45 mg TDD (n = 18)): 6 n
Rash, Grade 2 (<45 mg TDD (n = 18)): (22) %
Rash, Grade 2, number of subjects (<45 mg TDD (n = 18)): 4 n
Stomatitis, Grade 1 (<45 mg TDD (n = 18)): (22) %
Stomatitis, Grade 1, number of subjects (<45 mg TDD (n = 18)): 4 n
Stomatitis, Grade 2 (<45 mg TDD (n = 18)): (11) %
Stomatitis, Grade 2, number of subjects (<45 mg TDD (n = 18)): 2 n
Vomiting, Grade 1 (<45 mg TDD (n = 18)): (11) %
Vomiting, Grade 1, number of subjects (<45 mg TDD (n = 18)): 2 n
Decreased appetite, All Grades (all doses): (14) %
Decreased appetite, All Grades, number of subjects (all doses): 7 n
Diarrhea, All Grades (all doses): (40) %
Diarrhea, All Grades, number of subjects (all doses): 20 n
Dose discontinuations (all doses): (4) %
Dose discontinuations, number (all doses): 2 n
Dose reductions (all doses): (16) %
Dose reductions, number (all doses): 8 n
Nausea, All Grades (all doses): (16) %
Nausea, All Grades, number of subjects (all doses): 8 n
Paronychia, All Grades (all doses): (28) %
Paronychia, All Grades, number of subjects (all doses): 14 n
Pruritis, All Grades (all doses): (22) %
Pruritis, All Grades, number of subjects (all doses): 11 n
Rash, All Grades (all doses): (54) %
Rash, All Grades, number of subjects (all doses): 27 n
Stomatitis, All Grades (all doses): (30) %
Stomatitis, All Grades, number of subjects (all doses): 15 n
Vomiting, All Grades (all doses): (14) %
Vomiting, All Grades, number of subjects (all doses): 7 n
Treatment-related adverse events (TRAEs), grade (each dose level): Grade 1 and 2 treatment-related adverse events (TRAEs) at each dose level
Diarrhea, Grade 1 (≥75 mg TDD (n = 9)): 22%
Diarrhea, Grade 1, number of subjects (≥75 mg TDD (n = 9)): 2 n
Diarrhea, Grade 2 (≥75 mg TDD (n = 9)): 22%
Diarrhea, Grade 2, number of subjects (≥75 mg TDD (n = 9)): 2 n
Diarrhea, Grade 3 (≥75 mg TDD (n = 9)): 11%
Diarrhea, Grade 3, number of subjects (≥75 mg TDD (n = 9)): 1 n
Dose reductions (≥75 mg TDD (n = 9)): 33%
Dose reductions, number (≥75 mg TDD (n = 9)): 3 n
Nausea, Grade 1 (≥75 mg TDD (n = 9)): 11%
Nausea, Grade 1, number of subjects (≥75 mg TDD (n = 9)): 1 n
Nausea, Grade 2 (≥75 mg TDD (n = 9)): 11%
Nausea, Grade 2, number of subjects (≥75 mg TDD (n = 9)): 1 n
Nausea, Grade 3 (≥75 mg TDD (n = 9)): 11%
Nausea, Grade 3, number of subjects (≥75 mg TDD (n = 9)): 1 n
Paronychia, Grade 1 (≥75 mg TDD (n = 9)): 22%
Paronychia, Grade 1, number of subjects (≥75 mg TDD (n = 9)): 2 n
Paronychia, Grade 2 (≥75 mg TDD (n = 9)): 11%
Paronychia, Grade 2, number of subjects (≥75 mg TDD (n = 9)): 1 n
Pruritis, Grade 1 (≥75 mg TDD (n = 9)): 11%
Pruritis, Grade 1, number of subjects (≥75 mg TDD (n = 9)): 1 n
Pruritis, Grade 2 (≥75 mg TDD (n = 9)): 11%
Pruritis, Grade 2, number of subjects (≥75 mg TDD (n = 9)): 1 n
Rash, Grade 1 (≥75 mg TDD (n = 9)): 44%
Rash, Grade 1, number of subjects (≥75 mg TDD (n = 9)): 4 n
Rash, Grade 2 (≥75 mg TDD (n = 9)): 11%
Rash, Grade 2, number of subjects (≥75 mg TDD (n = 9)): 1 n
Stomatitis, Grade 1 (≥75 mg TDD (n = 9)): 22%
Stomatitis, Grade 1, number of subjects (≥75 mg TDD (n = 9)): 2 n
Stomatitis, Grade 2 (≥75 mg TDD (n = 9)): 22%
Stomatitis, Grade 2, number of subjects (≥75 mg TDD (n = 9)): 2 n
Vomiting, Grade 1 (≥75 mg TDD (n = 9)): 11%
Vomiting, Grade 1, number of subjects (≥75 mg TDD (n = 9)): 1 n
Vomiting, Grade 2 (≥75 mg TDD (n = 9)): 11%
Vomiting, Grade 2, number of subjects (≥75 mg TDD (n = 9)): 1 n
Vomiting, Grade 3 (≥75 mg TDD (n = 9)): 11%
Vomiting, Grade 3, number of subjects (≥75 mg TDD (n = 9)): 1 n
